The target of data set [1] is T1, TNKS2 ARC4 (488–649) (Homo sapiens, UniProt Q9H2K2).
T1 construct: The cell was filled with TNKS2 ARC4 (488–649); His6-GST (cleaved yes); made in house; host or cells: E. coli BL21-CodonPlus (DE3)-RIL
T1 sequence (Q9H2K2 488-649): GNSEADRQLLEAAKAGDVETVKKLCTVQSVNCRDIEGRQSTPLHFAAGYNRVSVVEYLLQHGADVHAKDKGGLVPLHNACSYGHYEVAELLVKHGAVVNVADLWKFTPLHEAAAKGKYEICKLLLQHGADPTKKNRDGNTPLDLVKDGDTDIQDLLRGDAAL
As to the kind of experiment: Protein-observed 1H-15N HSQC NMR titration (chemical shift perturbation). Type of data set: binding. Particulars: for 15N NMR / 15N HSQC chemical shift perturbations (CSPs): 15N-labelled TNKS2 ARC4. The text has this: We next tested validated hits from both the DSF and NMR screens against TNKS2 ARC4 using protein-observed NMR. This included 16 compounds in total: 14 fragments identified by DSF and confirmed to bind TNKS2 ARC5 by both relaxation-edited and waterLOGSY methods and two unique fragments identified by NMR and confirmed to bind TNKS2 ARC4 by both ligand-observed NMR methods. We used the 3BP2 TBM peptide as a positive control. To directly identify fragment binding sites on the ARC, we performed a full backbone and partial side-chain assignment of TNKS2 ARC4, doubly labelled with ^15N and ^13C isotopes. The assignment details have been reported elsewhere. […] The different binding regimes may distinguish primary interaction hotspots that are engaged robustly when a peptide is first recruited (slow exchange) from secondary binding sites in the ARC that become occupied once primary binding hotspots are engaged; these may be more dynamic (fast exchange).
We then titrated compounds against ^15N-labelled TNKS2 ARC4, initially at protein:compound ratios of 1:1 and 1:3. […] We confirmed that the CSPs were not caused by pH changes during the titration by measuring the pH of the peptide and fragment stocks (at 3 mM) in assay buffer. Consistent with TBM-competitive binding of fragments 3 and 5, we identified several peaks that shifted in both fragment and 3BP2 TBM peptide titrations. […] However, the solubility of fragments 3 and 5 in assay buffer limited the maximum concentration achievable, and so complete saturation was not reached. This confounded affinity measurements and more extensive analyses of the fragment binding sites by protein-observed NMR.
^15N-labelled TNKS2 ARC4 (488–649) (300 μM final concentration; 5 μL of 3 mM stock) in NMR buffer (45 μL, 25 mM HEPES-NaOH pH 7.5, 100 mM NaCl, 1 mM TCEP, 10% D2O) was used as the baseline sample. Peptide titration samples (Table 6) were prepared by diluting the 16-mer 3BP2 peptide with NMR buffer (45 μL), then adding TNKS2 ARC4 (300 μM final concentration; 5 μL of 3 mM stock). Separate samples were prepared for each concentration point. Fragment titration samples (Table 7) were prepared by diluting fragments in NMR buffer (25 mM HEPES-NaOH pH 7.5, 100 mM NaCl, 1 mM TCEP, 10% D2O) and backfilling with DMSO to keep a constant DMSO concentration of 5%. ^15N-labelled TNKS2 ARC4 (300 μM final concentration; 5 μL of 3 mM stock) was added. Protein with 5% DMSO alone was used as the baseline. Separate samples were prepared for each concentration point. ^1H-^15N HSQC spectra were acquired over 3 h, with 64 scans and a spectrum width of 16.00 ppm for ^1H and 29.00 ppm for ^15N. The pH of the peptide and fragment stocks (at 3 mM) was confirmed to exclude the possibility that peak shifts were due to changes in pH during the titration.
Peaks that shifted were picked manually in each spectrum. The chemical shifts for each peak were measured and exported into Microsoft Excel, where the change in chemical shift from baseline was calculated for hydrogen and nitrogen shifts. The average Euclidean distance shifted (d) was then calculated using Eq. 2, weighting the different nuclei:2 d=√{1/2[δH2+(α.δN2)]},whereα=0.14
Values of d were plotted against ligand concentration in GraphPad Prism, and fitted with Eq. 3:3 Δδobs=Δδmax{([P]t+[L]t+Kd)−[([P]t+[L]t+Kd)^2−4[P]t[L]t]^1/2/2[P]t
Kd values were calculated for each peak that shifted individually. The mean of all shifting peaks was then calculated to give an apparent Kd value.

Data set [2] has as its target T2, TNKS2 ARC4 (Homo sapiens, UniProt Q9H2K2).
T2 construct: The cell was filled with TNKS2 ARC4 (488–649); His6-GST; made in house; host or cells: E. coli
T2 sequence (Q9H2K2 488-649): T1 sequence (Q9H2K2 488-649)
In words: WaterLOGSY NMR assay. Format: binding. The conditions noted are these: for waterLOGSY: wild-type TNKS2 ARC4 20 μM, negative NOE = binder. On the procedure: We next sought close structural analogues of hit fragments 3 and 5 to gain early insights into structure-activity relationships (SAR) and binding modes of hit fragments. We initially tested the analogues using both relaxation-edited and waterLOGSY NMR assays against TNKS2 ARC4 (Table 1), followed by protein-observed NMR if binding was detected in both ligand-observed NMR experiments.
Fragments were dispensed in duplicate into a 384-well plate (250 nL, 100 mM stock in DMSO). Wells were backfilled with DMSO (2.25 μL). Tankyrase ARC protein (47.5 μL in 25 mM HEPES-NaOH pH7.5, 100 mM NaCl, 2 mM TCEP, 10% D2O; 20 μM final protein concentration in the assay) was added to the samples containing protein; buffer only (47.5 μL) was added to the compound-only samples. Solutions were transferred to 1.7 mm NMR tubes using a Gilson liquid handling system. ^1H NMR spectra were recorded, with the DMSO signal dampened. The bulk water signal at 4.7 ppm was selectively inverted. Data were processed using Bruker Topspin 3.14[66].

Data set [3] can be described thus: Fragment solubility assay by NMR. Format: physicochemical. The conditions noted are these: NMR buffer (HEPES-NaOH) with 5% DMSO, aqueous with cosolvent or surfactant or cyclodextrin, kinetic from dmso stock; NMR buffer pH 7.5, 5% DMSO, 500 μM nominal. As for the experimental part:
Fragments were dispensed into a 384-well plate (250 nL of 100 mM stock in DMSO, 500 μM final concentration) using an ECHO acoustic dispenser. DMSO (2.25 μL) was added, then NMR buffer (47.5 μL, 25 mM HEPES-NaOH pH 7.5, 100 mM NaCl, 1 mM TCEP, 10% D2O). The plate was centrifuged (1 min, 1000 × g) before the solutions were transferred to 1.7 mm NMR tubes using a Gilson liquid handling system. ^1H NMR spectra were recorded with the DMSO and water signals dampened. 100 μM caffeine was used as an external standard to quantify the ligand signals.

The mark [4] stands for this setting: TNKS2 ARC4 300 μM, fragment up to 4800 μM, 5% DMSO.

pKd: −log10 of the molar value. ≈ marks a conversion by molar mass, not a printed value. Entries after “also recorded” stand apart in the source; their conditions may differ.

Usually solubility stands for how much of the substance goes into solution per volume. Higher therefore signals a readily soluble substance. Turning to `O=C(NCc1ccco1)c1ccc(F)cc1` [compound 3], the “15N NMR / 15N HSQC chemical shift perturbations (CSPs)” value in data set [1] was “significant CSPs; also recorded: substantial CSPs; also recorded: CSPs observed”. For the same compound, in data set [1] (setting [4]), the “NMR Kd (apparent, mean of shifting peaks)” value is “no saturation”. Besides, the waterLOGSY entry in data set [2] was “negative NOE; also recorded: binding”. In data set [3], this compound registered a solubility of 220 µM (≈ 48.2 µg/mL).

Regarding `O=C(NCc1ccc(F)cc1)c1ccc2nccnc2c1` [compound 5], the “15N NMR / 15N HSQC chemical shift perturbations (CSPs)” value in data set [1] is listed as “significant CSPs; also recorded: substantial CSPs; also recorded: CSPs observed”. For the same compound, the “NMR Kd (apparent, mean of shifting peaks)” value in data set [1] (setting [4]) is listed as “no saturation”. Moreover, in data set [2], the “waterLOGSY: competition with 3BP2 TBM peptide” value is reported as “peptide competition” and the waterLOGSY entry is “negative NOE; also recorded: binding”. The solubility in data set [3] stood at 410 µM (≈ 115 µg/mL).

Take `O=C(NCc1ccco1)c1ccc2nccnc2c1` [compound 9]: in data set [1], the “15N NMR / 15N HSQC chemical shift perturbations (CSPs)” value was “substantial CSPs; also recorded: significant CSPs”. Further, the pKd in data set [1] (TNKS2 ARC4 300 μM, fragment up to 4800 μM, 5% DMSO, read-out: NMR Kd (apparent, mean of shifting peaks)) is 2.98. The “waterLOGSY, compound alone” value in data set [2] (no protein added) is “no NOE”. Also, the waterLOGSY entry in data set [2] is “one peak has negative NOE; also recorded: binding; also recorded: negative NOE signal”. In data set [3], this compound had a solubility of 650 µM (≈ 165 µg/mL).

As to “LPHLQRSPPDGQSFRSW [3BP2 16-mer peptide, 16-mer TBM peptide derived from 3BP2, W added for A280, N-terminus acetylated, C-terminus amide-capped; positive control, reference compound]”, the “15N NMR / 15N HSQC chemical shift perturbations (CSPs)” value in data set [1] is recorded as “significant chemical shift perturbations”.

The values are drawn from PMC6911004, “Fragment-based screening identifies molecules targeting the substrate-binding ankyrin repeat domains of tankyrase” (Scientific Reports, 2019).
